# In patent publication US20040087543A1, “Methods and products for mucosal delivery” (priority 2002, published 2004):
# Where two headings read alike, the source gives them in different places.
# Conditions: rabbit, in vivo, sc
# Method: For the rabbit model, 2.5-3 kg New Zealand male rabbits were used with 3 rabbits per group. Rabbits were allowed to adapt for 7 days and free access to water and food. Ketamine (40 mg/kg) and Xylazine (5 mg/kg) were used to anesthetize the rabbits. To withdraw blood samples, a 24-gauze Teflon catheter was inserted into the center auricular artery. The catheter was connected to a heparin cap filled with 0.9% saline solution.
# Enoxaparin at doses of 3 and 6 mg/kg was given by subcutaneous injection at time 0. Blood samples were collected 0, 3, 5, 10, 15, 30 min, 1, 2, 3, 4, 6, 8, 12 hours after subcutaneous injection and processed as described above. The plasma was collected at indicated times and analyzed for anti-Xa assay as described. Enoxaparin for subcutaneous injection was formulated as a solution in PBS or water at 100 mg/ml concentration and appropriate doses were injected.
# An anti-Xa assay was used to monitor plasma LMWH levels. The anti-Xa assay was performed using a modification of the amidolytic method of Teien and Lie (Thrombosis res. 10: 399-410, 1977) with the Coatest heparin test kit by using S-2222 as the chromogenic substrate (Diapharma Group, Inc. OH). […] The concentration of enoxaparin in unknown samples was calculated by comparing readings to the calibration curve which was linear in the range of 0.1-0.7 IU/ml.
# Experimental data, expressed in anti-Xa IU/mL, was utilized for non-linear regression curves based on a one-compartment model (Comelli and Fareed, Semin thromb Hemost, 25: 57-61, 1999) by using SigmaPlot program with the method of extended least squares. From the kinetic curves, the following parameters were calculated: the area under curve (AUC expressed in IU*hr*ml^−1), absorption half-life (t1/2 expressed in hr); and half-life of apparent elimination (t1/2e expressed in hr). The AUC (0-t) was calculated using the trapezoidal rule (Rowland and Tozer, Clinical Pharmacokinetics. Concepts and Applications. 459-461, Lea and Febiger, 1989) and extrapolated to infinity (AUC) by dividing the value of the last measured concentration by the elimination rate constant.
Substance,absorption half-life,AUC (IU*hr/mL) (3 mg/kg),Ka (3 mg/kg),Ke (3 mg/kg),MRT (AUMC/AUC) (3 mg/kg),AUC (IU*hr/mL) (6 mg/kg),Ka (6 mg/kg),Ke (6 mg/kg),MRT (AUMC/AUC) (6 mg/kg)
dalteparin,1 to 2 h,6.93 IU*hr/mL,0.40,0.33 h⁻¹,4.97 h,13.27 IU*hr/mL,0.32,0.27 h⁻¹,5.93 h
enoxaparin,1 to 2 h,6.27 IU * hr/mL,0.40,0.35 h⁻¹,4.75 h,13.45 IU * hr/mL,0.35,0.3 h⁻¹,5.48 h
